For test [1], the system named is P. falciparum (strain 3D7). The test can be described thus: Assay of growth inhibition, [3H]hypoxanthine incorporation. Type of test: cell-based. The method, then: Assay of Growth inhibition. Thiostrepton (1525 u/mg; Calbiochem) and anisomycin (Sigma) were dissolved at 100 mM in DMSO (Pierce). P. falciparum (strain 3D7) (44) was maintained in culture with human erythrocytes (5% hematocrit) in RPMI-1640 (Life Technologies) supplemented with HEPES and sodium bicarbonate and human sera (10%) under standard conditions (18,19). The growth inhibition assay was conducted as described (20). Briefly, the parasitemia was adjusted to 0.1% parasitemia, 2.5% hematocrit and 200 μl aliquots placed in wells of a microtitre dish. Serial dilutions of drugs were made in RPMI. Thiostrepton was diluted to 10 mM in DMSO before the serial dilutions in RPMI. Aliquots (20 μl) were added in triplicate to the cultures in the microtitre plate, mixing well. At the highest concentrations (final 0.2mM), thiostrepton precipitates. After incubation for 48 hours under standard conditions, [2,8-^3 H]-hypoxanthine Moravek Biochemicals, 12.5 Ci/mmol) in RPMI (20 μl, 0.05 mCi/ml) was added to each well. After incubation for a further 24 hours, the cultures were lysed and incorporated radioactivity was measured with an automated counter.
Assay of inhibition. The effect of thiostrepton on growth and protein synthesis of P. falciparum was compared to anisomycin, since the effect of both of these drugs is on protein synthesis. To assay the effect of thiostrepton and anisomycin on the growth of P. faciparum, inhibition of the uptake and incorporation of [^3 H]hypoxanthine was quantitated at serial dilutions of the drugs on an in vitro culture of P. falciparum. […] Inhibition of the incorporation of [^3 H]leucine was also tested at the same dilutions of the drugs. For anisomycin, total protein synthesis was inhibited 50% at the IC50 (0.511 μM) for inhibition of growth, with the concentration-response almost superimposable on that of protein synthesis. […] This would occur if organelle protein synthesis was the target of inhibition (29,30).

Test [2] concerns rpoB/C mRNA encoded by the 35-kb plastid-like organelle genome. It is filed as cell-based, P. falciparum. The procedure: As of organelle and cyloplasmic transcript levels. RNA polymerase transcript levels were assessed by comparing the amounts of RNA synthesized at timepoints following drug treatment. Cultures of P. falciparum (3.2% parasitemia, 5% hematocrit) were treated with thiostrepton at 8 μM and rifampin (Sigma) at 80 μM; near the IC99 values (this study and ref. 22). Aliquots (5 ml) of treated and control cultures were removed and immediately processed for RNA with a guanidinium thiocyanate solution, according to the manufacturer's directions (RNAgents, Promega). All RNA samples were dissolved in 50 μl DEPC-treated water, DNase I treated as previously described (23) and an aliquot (1 μl) was removed for RT-PCR First strand synthesis of cDNA was completed with a random hexamer (Superscript Preamplification System, Life Technologies). One-tenth of the CDNA product was utilized for PCR of rpoB/C, MSA1, and rRNA. Primers corresponding to the 3' region of rpoB, 5'-GGGCTTTAGAAGCTTTTGG-3' (SEQ ID NO:1), and the 5' region of rpoC, 5'-[…]-3' (SEQ ID NO:2) were applied as described (2,3) for PCR of nascent rpoB/C transcripts. Reactions were cycled with the following parameters: 94° C./30 seconds, 42° C./30 seconds, 72° C./60 seconds, 35 cycles. Primers for amplification of nucleotide 64 to 614 of MSA1 with 5'-GTGTGATAATATTCATGG-3' (SEQ ID NO:3) and 5'-GGAGAGCATTTGGTG-3' (SEQ ID NO:4)(24) and the small subunit rRNA with oligonucleotides 841 and 844 (23) were used for amplification reactions following the parameters in the respective references except with 35 cycles. Samples were also analyzed after 25 cycles of amplification to ensure detection in the linear range of the amplification reaction, with similar results. Following electrophoresis of aliquots from the amplification reactions on 1% agarose:TBE gels, samples were transferred to nylon membranes (GeneScreen Plus, DuPont) and hybridized as described (25). The amplification products were probed with 5'-^32 P-labeled oligonucleotides. The rpoB/C products were probed with 5'-[…]-3' (SEQ ID NO:5) (nucleotide 2009-2030 of rpoB) and 5'-CGGAGAGGTATTAATACC-3' (SEQ ED NO:6) (nucleotide 108-125 of rpoC), in 5×SSC, 10 mM sodium phosphate, 0.05% sodium pyrophosphate, 1% sodium dodecyl sulfate, 5×Denhardt's solution, 100 μg/ml yeast tRNA, 42° C. and washed in the hybridization solution lacking Denhardt's and tRNA at 37° C., three times. The final wash was 1×SSC, 0.5% sodium dodecyl sulfate, 42° C. followed by autoradiography. The same results were obtained with either probe. The MSA1 amplification products were similarly probed with 5'-[…]-3' (SEQ ID NO:7) and the rRNA products with oligonucleotide 842 (23).
The target of inhibition by thiostrepton. […]

The values that follow come from patent publication US6313090A, “Methods for treating parasitic infection using thiopeptides” (The United States of America as represented by the …, priority 2000, dated 2001).

The IC50 is the concentration that inhibits the measured activity by half. High values mean lower potency, low ones higher potency. With `C=C(NC(=O)C(=C)NC(=O)c1csc(C2=N[C@@H]3c4csc(n4)[C@H]4NC(=O)c5csc(n5)[C@H]([C@](C)(O)[C@@H](C)O)NC(=O)[C@H]5CSC(=N5)/C(=C/C)NC(=O)[C@H]([C@@H](C)O)NC(=O)c5csc(n5)[C@]3(CC2)NC(=O)[C@H](C)NC(=O)C(=C)NC(=O)[C@H](C)NC(=O)[C@H]([C@@H](C)CC)N[C@@H]2C=Cc3c([C@H](C)O)cc(nc3[C@H]2O)C(=O)O[C@@H]4C)n1)C(N)=O` [Thiostrepton, thiostrepton], the 50% inhibitory concentration (IC50) in test [1] (Plasmodium falciparum, 3D7, in vitro culture, [3H]hypoxanthine uptake and incorporation) worked out at 1800 nM. In test [1] (concentration used, near the IC99 value, this study), the “IC99 (near)” value is around 8 µM. In test [2] (thiostrepton at 8 μM, rifampin at 80 μM), the “decay of mRNA corresponding to rpoB/C, time of drug treatment” value was at most 6 h. Moreover, in test [2] (time course, 8 μM), the “decline of the rpoB/C product with time” value is reported as “notable affect after only one hour of treatment”. The “effect on levels of nuclear-encoded MSA mRNA and total rRNA” value in test [2] (within the duration of the experiment (8 hours), 8 μM) is on record as “no effect”.
